Among the test systems are MDA-MB-435; HCT-15 colon; HL-60(TB) leukemia; OVCAR-8 ovarian; HCC-2998 colon; EKVX NSCLC; COLO 205 colon; M14 melanoma; SF-268 CNS; OVCAR-5 ovarian.
Common to all, as to test: growth of human tumour cells (NCI), 48 h

Structures are written as SMILES.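 96-well plates; 48 h exposure; 5 concentrations. Endpoints by linear interpolation between flanking doses. Not reached: highest tested concentration assigned. GI50 marks 50% less growth. TGI marks complete inhibition of growth.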 Where only a bound is given, the exact number is not on record here.

`CCOP(=O)(OCC)/C(C#N)=C/c1ccccn1`: the TGI in the test on MDA-MB-435, with HCT-15 colon, in the test on HL-60(TB) leukemia, in the test with OVCAR-8 ovarian, in the test with HCC-2998 colon and with EKVX NSCLC was more than 100 µM in each case. Also, the TGI with COLO 205 colon, in the test with M14 melanoma, in the test with SF-268 CNS and in the test on OVCAR-5 ovarian was more than 100 µM throughout.

Regarding `COc1cc(OCc2cccc(-c3ccccc3)c2C)cc(OC)c1CN1CCCCC1C(=O)NCCOCCOCCN` (stereo not given), the GI50 was 1.79 µM with MDA-MB-435; 3.09 µM in the test on HCT-15 colon; 1.91 µM in the test with HL-60(TB) leukemia; 3.26 µM with OVCAR-8 ovarian; 2.39 µM in the test with HCC-2998 colon; 3.71 µM in the test on EKVX NSCLC. The GI50 was 1.82 µM in the test with COLO 205 colon, 1.84 µM in the test on M14 melanoma, 2.1 µM in the test with SF-268 CNS and 3.73 µM with OVCAR-5 ovarian. The TGI in the test on MDA-MB-435 stood at 3.32 µM; with HCT-15 colon, 11.1 µM; with HL-60(TB) leukemia it was 4.07 µM; in the test on OVCAR-8 ovarian, 12.1 µM; in the test on HCC-2998 colon, 5.85 µM; with EKVX NSCLC, 15.7 µM. In addition, the TGI in the test with COLO 205 colon amounted to 3.7 µM; in the test with M14 melanoma, 3.57 µM; with SF-268 CNS it was 5.5 µM; in the test on OVCAR-5 ovarian it was 14.9 µM.

The values above are taken from PubChem BioAssay (NCI).
